Data as given in patent US7407954B2, “Thieno-(1,3)-oxazin-4-ones with lipase inhibiting activity” (Alizyme Therapeutics Limited, priority 2001, dated 2008).

Key:
human pancreatic lipase = molecular target: T1, human pancreatic lipase (Homo sapiens, UniProt P16233); assay: Lipase activity, quinine diimine dye colorimetric assay (Sigma Lipase-PS); format: biochemical
T1 sequence (P16233 17-465): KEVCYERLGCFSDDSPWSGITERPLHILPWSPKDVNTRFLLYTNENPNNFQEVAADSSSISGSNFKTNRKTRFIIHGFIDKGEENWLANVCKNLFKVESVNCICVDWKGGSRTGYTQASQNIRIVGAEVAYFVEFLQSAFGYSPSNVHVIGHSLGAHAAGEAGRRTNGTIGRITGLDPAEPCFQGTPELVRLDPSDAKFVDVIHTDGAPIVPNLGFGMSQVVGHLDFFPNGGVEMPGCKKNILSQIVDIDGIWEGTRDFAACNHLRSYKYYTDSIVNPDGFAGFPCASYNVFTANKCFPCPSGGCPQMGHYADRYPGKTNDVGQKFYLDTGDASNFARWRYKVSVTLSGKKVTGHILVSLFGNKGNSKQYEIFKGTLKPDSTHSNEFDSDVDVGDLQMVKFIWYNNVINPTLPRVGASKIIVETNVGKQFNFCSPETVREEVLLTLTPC
Description: Measurement of Lipase Activity Using a Quinine Diimine Dye Calorimetric Assay
The inhibitory activity of the selected compounds to pancreatic lipase was measured in the following assay available from Sigma Ltd (Lipase-PS™, catalog number 805-A):
The glycerol released from the action of pancreatic and monoglyceride lipase was oxidised to release H2O2. The peroxidase reaction step then produces a quinine dye which is pink in colour and absorbs light at a wavelength of 550 nm.
Individual test compounds were dissolved in DMSO (dimethyl sulphoxide) at 10 mM. DMSO was used to avoid any problems with compounds being water-insoluble.
For individual compounds, the IC50 (concentration at which lipase activity is inhibited to one half of the maximum) was calculated by measuring the inhibitory activity from log-dose response curves using a range of inhibitor concentrations.
A range of standard compounds were assayed in the quinine dye calorimetric assay which provides a rapid method to measure lipase inhibitory activity.

[1] = molecular target: T2, porcine pancreatic lipase (Sus scrofa, UniProt P00591); assay: Lipase enzyme activity, NaOH titration method (lipid micelles); format: biochemical; settings: NaOH titration assay
T2 sequence (P00591 1-450): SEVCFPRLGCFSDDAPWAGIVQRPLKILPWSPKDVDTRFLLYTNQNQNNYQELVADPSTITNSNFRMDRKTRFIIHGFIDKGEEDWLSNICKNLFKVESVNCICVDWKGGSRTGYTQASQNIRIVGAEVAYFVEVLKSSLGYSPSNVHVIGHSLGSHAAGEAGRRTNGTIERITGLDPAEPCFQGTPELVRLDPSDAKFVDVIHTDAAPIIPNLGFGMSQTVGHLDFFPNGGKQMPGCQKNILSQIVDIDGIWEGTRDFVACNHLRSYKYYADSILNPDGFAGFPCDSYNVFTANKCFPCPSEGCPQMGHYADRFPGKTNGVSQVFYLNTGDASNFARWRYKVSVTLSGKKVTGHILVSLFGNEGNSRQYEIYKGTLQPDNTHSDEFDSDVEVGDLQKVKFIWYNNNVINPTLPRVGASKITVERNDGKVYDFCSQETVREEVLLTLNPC
Description: Measurement of Lipase Enzyme Activity Using a NaOH Titration Method
The inhibitory activity of the selected compound to pancreatic lipase was measured in the assay described in Pasquier et al; 1996, Vol 7, Nutritional Biochemistry, 293-302.
Log dose/response curves were constructed using a range of inhibitor concentrations.
Selected thieno-oxazinone compounds were tested in the NaOH titration assay. In this assay, the activity of porcine pancreatic lipase in a system containing lipid micelles is recorded. These conditions are therefore similar to those encountered in the gastrointestinal tract.

IC50 (human pancreatic lipase)	IC50 [1]	Structure (SMILES)
< 100 nM	≤ 1000 nM	O=c1oc(Nc2ccccc2)nc2sccc12 [Compound 1, 2-Phenylamino-4H-thieno[2,3-d][1,3]oxazin-4-one]
< 100 nM	≤ 1000 nM	O=c1oc(Nc2ccc(Oc3ccccc3)cc2)nc2ccsc12 [Compound 10, 2-(4-Phenoxy)phenylamino-4H-thieno[3,2-d][1,3]oxazin-4-one]
< 100 nM	≤ 1000 nM	O=c1oc(Nc2ccc(Cc3ccccc3)cc2)nc2sccc12 [Compound 11, 2-(4-Phenylmethyl)phenylamino-4H-thieno[2,3-d][1,3]oxazin-4-one]
< 100 nM	≤ 1000 nM	O=C(c1ccccc1)c1ccc(Nc2nc3sccc3c(=O)o2)cc1 [Compound 12, 2-(4-Benzoyl)phenylamino-4H-thieno[2,3-d][1,3]oxazin-4-one]
< 100 nM	≤ 1000 nM	O=c1oc(Nc2ccc(Sc3ccccc3)cc2)nc2sccc12 [Compound 16, 2-(4-Phenylthio)phenylamino-4H-thieno[2,3-d][1,3]oxazin-4-one]
< 100 nM	–	N#Cc1ccc(Nc2nc3sccc3c(=O)o2)cc1 [Compound 27, 2-(4-Cyanophenyl)amino-4H-thieno[2,3-d][1,3]oxazin-4-one]
< 100 nM	–	CCCc1cc2c(=O)oc(Nc3ccc(C#N)cc3)nc2s1 [Compound 28, 2-(4-Cyanophenyl)amino-6-propyl-4H-thieno[2,3-d][1,3]oxazin-4-one]
< 100 nM	–	Cc1cc2c(=O)oc(Nc3ccc(C#N)cc3)nc2s1 [Compound 29, 2-(4-Cyanophenyl)amino-6-methyl-4H-thieno[2,3-d][1,3]oxazin-4-one]
< 100 nM	–	N#Cc1ccc(Nc2nc3sc(Cc4ccccc4)cc3c(=O)o2)cc1 [Compound 30, 6-Phenylmethyl-2-(4-cyanophenyl)amino-4H-thieno[2,3-d][1,3]oxazin-4-one]
< 100 nM	–	O=c1oc(Nc2ccc(Oc3ccc(C(F)(F)F)cc3)cc2)nc2ccsc12 [Compound 38, 2-(4-(4-Trifluoromethyl-phenoxy)phenylamino)-4H-thieno[3,2-d][1,3]oxazin-4-one]
< 100 nM	–	N#Cc1ccc(Nc2nc3ccsc3c(=O)o2)cc1 [Compound 40, 2-(4-Cyanophenyl)amino-4H-thieno[3,2-d][1,3]oxazin-4-one]
< 100 nM	≤ 1000 nM	Cc1cc2nc(Nc3ccc(Oc4ccccc4)cc3)oc(=O)c2s1 [Compound 43, 5-Methyl-2-(4-phenoxy)phenylamino-4H-thieno[3,2-d][1,3]oxazin-4-one]

The remaining lines, values behind:

Structure (SMILES)	IC50 (human pancreatic lipase)	IC50 [1]
O=c1oc(Nc2ccc(Oc3ccccc3)cc2)nc2sccc12 [Compound 5, 2-(4-Phenoxy)phenylamino-4H-thieno[2,3-d][1,3]oxazin-4-one]	< 100 nM	≤ 1000 nM
O=c1oc(Nc2ccccc2)nc2cc(-c3ccccc3)sc12 [Compound 6]	< 100 nM	≤ 1000 nM
O=c1oc(Nc2ccc(Oc3cccc(C(F)(F)F)c3)cc2)nc2sccc12 [Compound 7, 2-(4-(3-Trifluoromethyl-phenoxy)phenylamino)-4H-thieno[2,3-d][1,3]oxazin-4-one]	< 100 nM	≤ 1000 nM
CC(C)(C)c1cc2nc(Nc3ccccc3)oc(=O)c2s1 [Compound 8]	< 100 nM	≤ 1000 nM
Cc1cc2c(=O)oc(Nc3ccc(Oc4ccccc4)cc3)nc2s1 [Compound 9, 6-Methyl-2-(4-phenoxy)phenylamino-4H-thieno[2,3-d][1,3]oxazin-4-one]	< 100 nM	≤ 1000 nM
O=c1oc(Nc2ccc(Oc3ccc(C(F)(F)F)cc3)cc2)nc2sccc12 [Compound 14, 2-(4-(4-Trifluoromethyl-phenoxy)phenylamino)-4H-thieno[2,3-d][1,3]oxazin-4-one]	< 100 nM	≤ 1000 nM
O=c1oc(Oc2ccc(Oc3cccc(C(F)(F)F)c3)cc2)nc2ccsc12 [Compound 15, 2-(4-(3-Trifluoromethyl-phenoxy)phenoxy)-4H-thieno[3,2-d][1,3]oxazin-4-one]	< 100 nM	≤ 1000 nM
CCCCCCCCCCCCNc1nc2sc(C)cc2c(=O)o1 [Compound 18, 2-Dodecylamino-6-methyl-4H-thieno[2,3-d][1,3]oxazin-4-one]	< 100 nM	–
CCCCCCCCCCCCN(C)c1nc2sc(C)cc2c(=O)o1 [Compound 19, 2-N-Dodecyl-N-methylamino-6-methyl-4H-thieno[2,3-d][1,3]oxazin-4-one]	< 100 nM	–
CCCCCCCCCCCCNc1nc2sccc2c(=O)o1 [Compound 20, 2-Dodecylamino-4H-thieno[2,3-d][1,3]oxazin-4-one]	< 100 nM	–
CCCCCCCCCCCCSc1nc2sc(C)cc2c(=O)o1 [Compound 21, 2-Dodecylthio-6-methyl-4H-thieno[2,3-d][1,3]oxazin-4-one]	< 100 nM	–
O=c1oc(Nc2ccc(S(=O)(=O)c3ccccc3)cc2)nc2sccc12 [Compound 23, 2-(4-Phenylsulfonyl)phenylamino-4H-thieno[2,3-d][1,3]oxazin-4-one]	< 100 nM	–
O=C(Nc1ccccc1)c1ccc(Nc2nc3sccc3c(=O)o2)cc1 [Compound 24, 2-(4-Phenylcarbamoyl)phenylamino-4H-thieno[2,3-d][1,3]oxazin-4-one]	< 100 nM	–
O=c1oc(Nc2ccc(Oc3ccc(Cl)cc3)cc2)nc2sccc12 [Compound 25, 2-(4-(4-Chlorophenoxy)-phenylamino)-4H-thieno[2,3-d][1,3]oxazin-4-one]	< 100 nM	–
Cc1ccc(Oc2ccc(Nc3nc4sccc4c(=O)o3)cc2)cc1 [Compound 26, 2-(4-(4-Methylphenoxy)-phenylamino)-4H-thieno[2,3-d][1,3]oxazin-4-one]	< 100 nM	–
CCCCCCCCCCCCc1cc2c(=O)oc(Nc3ccc(C#N)cc3)nc2s1 [Compound 31, 2-(4-Cyanophenyl)amino-6-dodecyl-4H-thieno[2,3-d][1,3]oxazin-4-one]	< 100 nM	–
Cc1cc2c(=O)oc(NCCCCc3ccccc3)nc2s1 [Compound 32, 6-Methyl-2-(4-phenylbutyl)amino-4H-thieno[2,3-d][1,3]oxazin-4-one]	< 100 nM	–
Cc1cc2c(=O)oc(NCCCl)nc2s1 [Compound 33, 2-(2-Chloroethyl)amino-6-methyl-4H-thieno[2,3-d][1,3]oxazin-4-one]	< 100 nM	–
COC(=O)CCCCCNc1nc2sc(C)cc2c(=O)o1 [Compound 35, 2-(5-Methoxycarbonylpentyl)amino-6-methyl-4H-thieno[2,3-d][1,3]oxazin-4-one]	< 100 nM	–
CCCCCCCCCCCCNc1nc2ccsc2c(=O)o1 [Compound 41, 2-Dodecylamino-4H-thieno[3,2-d][1,3]oxazin-4-one]	< 100 nM	–
CCCc1cc2c(=O)oc(Nc3ccc(Oc4ccccc4)cc3)nc2s1 [Compound 44, 6-Propyl-2-(4-phenoxy)phenylamino-4H-thieno[2,3-d][1,3]oxazin-4-one]	< 100 nM	≤ 1000 nM
CCCCCCCCCCCCCCCCNc1nc2sc(C)cc2c(=O)o1 [Compound 45, 2-Hexadecylamino-6-methyl-4H-thieno-[2,3-d][1,3]oxazin-4-one]	< 100 nM	≤ 1000 nM
Cc1cc2c(=O)oc(Nc3ccccc3)nc2s1 [Compound 46, 6-Methyl-2-phenylamino-4H-thieno[2,3-d][1,3]oxazin-4-one]	< 100 nM	≤ 1000 nM
CCCCNc1nc2sc(C)cc2c(=O)o1 [Compound 47, 2-Butylamino-6-methyl-4H-thieno[2,3-d][1,3]oxazin-4-one]	< 100 nM	≤ 1000 nM
O=c1oc(Nc2ccc(Oc3ccccc3)cc2)nc2sc(Cl)cc12 [Compound 48, 6-Chloro-2-(4-phenoxy)phenylamino-4H-thieno[2,3-d][1,3]oxazin-4-one]	< 100 nM	≤ 1000 nM
CCCCCCCCCCCCc1cc2c(=O)oc(Nc3ccc(Oc4ccccc4)cc3)nc2s1 [Compound 49, 6-Dodecyl-2-(4-phenoxy)phenylamino-4H-thieno[2,3-d][1,3]oxazin-4-one]	< 100 nM	≤ 1000 nM
